We go through 39 compounds from patent US10005739B2, “Quinazolinone and isoquinolinone derivative” (CHUGAI SEIYAKU KABUSHIKI KAISHA, priority 2013, dated 2018).

Broadly, the IC50 is the concentration that inhibits the measured activity by half.

The structures appear in SMILES notation.

Sequence of DDR1 (Q08345 19-913): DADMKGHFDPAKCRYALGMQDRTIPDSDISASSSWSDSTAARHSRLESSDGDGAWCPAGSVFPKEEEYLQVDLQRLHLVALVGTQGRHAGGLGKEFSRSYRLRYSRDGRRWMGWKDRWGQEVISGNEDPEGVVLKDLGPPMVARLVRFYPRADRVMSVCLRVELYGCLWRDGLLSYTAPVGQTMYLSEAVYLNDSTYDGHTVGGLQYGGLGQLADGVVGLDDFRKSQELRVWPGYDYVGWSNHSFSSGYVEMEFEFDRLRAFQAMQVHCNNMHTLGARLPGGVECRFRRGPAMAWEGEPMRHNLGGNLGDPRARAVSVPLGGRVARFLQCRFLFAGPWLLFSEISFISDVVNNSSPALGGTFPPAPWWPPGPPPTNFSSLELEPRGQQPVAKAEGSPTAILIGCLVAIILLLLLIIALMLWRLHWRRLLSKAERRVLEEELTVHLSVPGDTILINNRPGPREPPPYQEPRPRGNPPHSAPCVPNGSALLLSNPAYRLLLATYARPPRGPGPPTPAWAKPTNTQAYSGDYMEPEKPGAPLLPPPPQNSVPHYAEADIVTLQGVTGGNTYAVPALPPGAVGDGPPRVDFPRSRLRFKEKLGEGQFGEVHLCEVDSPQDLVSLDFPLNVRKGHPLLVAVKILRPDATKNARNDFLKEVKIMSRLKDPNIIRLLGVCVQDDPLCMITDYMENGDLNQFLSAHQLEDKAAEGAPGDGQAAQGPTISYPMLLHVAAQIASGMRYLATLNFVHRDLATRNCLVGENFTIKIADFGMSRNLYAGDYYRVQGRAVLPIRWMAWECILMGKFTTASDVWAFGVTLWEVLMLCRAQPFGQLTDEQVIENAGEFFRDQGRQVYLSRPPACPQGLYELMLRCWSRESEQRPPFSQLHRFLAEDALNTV

In the assay the target is DDR1 (Homo sapiens (Human), UniProt Q08345). Description: Measurement of DDR1 enzyme inhibitory activity (phosphorylation of biotinylated peptide, time-resolved fluorescence). It counts as biochemical. Conditions: human DDR1 enzyme, biotinylated peptide phosphorylation; read-out: DDR1 enzyme inhibition assay IC50. The method, then:
1. Measurement of DDR1 Enzyme Inhibitory Activity
The DDR1 enzyme inhibitory activity was determined with human DDR1 enzyme prepared using the baculovirus expression system, based on the inhibitory activity of phosphorylation of a biotinylated peptide ([…]) by the enzyme. The phosphorylated biotinylated peptide was detected using time-resolved fluorescence, with an anti-phosphorylated tyrosine antibody conjugated with europium cryptate and streptavidin conjugated with XL665 which is a derivative of allophycocyanin.
For `CCSc1ccc(C#N)cc1Nn1cnc2ncc(Br)cc2c1=O` [Compound C-7, 3-[(6-Bromo-4-oxopyrido[2,3-d]pyrimidin-3-yl)amino]-4-ethylsulfanylbenzonitrile], the IC50 was found to be 750 nM.

As to `CCS(=O)(=O)c1ccc(C#N)cc1Nn1cnc2ncc(Br)cc2c1=O` [Compound C-8, 3-[(6-Bromo-4-oxopyrido[2,3-d]pyrimidin-3-yl)amino]-4-ethylsulfonylbenzonitrile], the IC50 was determined as 6400 nM.

For the compound `CCSc1ccc(C#N)cc1Nn1cnc2ccc(C(F)(F)F)cc2c1=O` [Compound C-9, 4-Ethylsulfanyl-3-[[4-oxo-6-(trifluoromethyl)quinazolin-3-yl]amino]benzonitrile], the IC50 turned out to be 99 nM. With `CCSc1ccc(C#N)cc1Nn1cnc2c(Br)cc(C(F)(F)F)cc2c1=O` [Compound C-11, 3-[[8-Bromo-4-oxo-6-(trifluoromethyl)quinazolin-3-yl]amino]-4-ethylsulfanylbenzonitrile] the figure was 110 nM. With `CCSc1ccc(C#N)cc1Nn1cnc2c(Br)cc(OC(F)(F)F)cc2c1=O` [Compound C-13] the figure was 110 nM; with `CCSc1ccc(C#N)cc1Nn1cnc2ccc(OC(F)(F)F)cc2c1=O` [Compound C-15, 4-Ethylsulfanyl-3-[[4-oxo-6-(trifluoromethoxy)quinazolin-3-yl]amino]benzonitrile], 210 nM. In the case of `CCS(=O)(=O)c1ccc(C#N)cc1Nn1cnc2ccc(OC(F)(F)F)cc2c1=O` [Compound C-16, 4-Ethylsulfonyl-3-[[4-oxo-6-(trifluoromethoxy)quinazolin-3-yl]amino]benzonitrile], the IC50 stood at 270 nM. Consider `CCSc1ccc(C#N)cc1Nn1cnc2cc(Br)c(OC(F)(F)F)cc2c1=O` [Compound C-17, 3-[[7-Bromo-4-oxo-6-(trifluoromethoxy)quinazolin-3-yl]amino]-4-ethylsulfanylbenzonitrile], for which the IC50 is 230 nM. As for `CCS(=O)(=O)c1ccc(C#N)cc1Nn1cnc2cc(Br)c(OC(F)(F)F)cc2c1=O` [Compound C-18, 3-[[7-bromo-4-oxo-6-(trifluoromethoxy)quinazolin-3-yl]amino]-4-ethylsulfonylbenzonitrile], the IC50 stood at 430 nM.

In the case of `CCSc1ccc(F)cc1Nn1cnc2c(Br)cc(OC(F)(F)F)cc2c1=O` [Compound C-19, 8-Bromo-3-(2-ethylsulfanyl-5-fluoroanilino)-6-(trifluoromethoxy)quinazolin-4-one], the IC50 amounted to 340 nM. Under `CCS(=O)(=O)c1ccc(F)cc1Nn1cnc2c(Br)cc(OC(F)(F)F)cc2c1=O` [Compound C-20, 8-Bromo-3-(2-ethylsulfonyl-5-fluoroanilino)-6-(trifluoromethoxy)quinazolin-4-one] stands 150 nM. Under `CCSc1ccc(F)cc1Nn1cnc2c(Br)cc(C(F)(F)F)cc2c1=O` [Compound C-21] stands 600 nM. With `CCS(=O)(=O)c1ccc(F)cc1Nn1cnc2c(Br)cc(C(F)(F)F)cc2c1=O` [Compound C-22, 8-Bromo-3-(2-ethylsulfonyl-5-fluoroanilino)-6-(trifluoromethyl)quinazolin-4-one] the figure was 300 nM; with `CCSc1ccc(Br)cc1Nn1cnc2c(Br)cc(OC(F)(F)F)cc2c1=O` [Compound C-23, 8-Bromo-3-(5-bromo-2-ethylsulfanylanilino)-6-(trifluoromethoxy)quinazolin-4-one], 400 nM.

On to `CCS(=O)(=O)c1ccc(Br)cc1Nn1cnc2c(Br)cc(OC(F)(F)F)cc2c1=O` [Compound C-24, 8-Bromo-3-(5-bromo-2-ethylsulfonylanilino)-6-(trifluoromethoxy)quinazolin-4-one], for which the IC50 amounted to 280 nM. With `CCSc1ccc(Br)cc1Nn1cnc2c(Br)cc(C(F)(F)F)cc2c1=O` [Compound C-25, 8-Bromo-3-(5-bromo-2-ethylsulfanylanilino)-6-(trifluoromethyl)quinazolin-4-one], the IC50 was found to be 180 nM. Under `CCS(=O)(=O)c1ccc(Br)cc1Nn1cnc2c(Br)cc(C(F)(F)F)cc2c1=O` [Compound C-26, 8-Bromo-3-(5-bromo-2-ethylsulfonylanilino)-6-(trifluoromethyl)quinazolin-4-one] stands 150 nM. For `CCSc1ccc(OC)cc1Nn1cnc2ccc(OC(F)(F)F)cc2c1=O` [Compound C-27, 3-(2-Ethylsulfanyl-5-methoxyanilino)-6-(trifluoromethoxy)quinazolin-4-one], the IC50 came out at 200 nM. With `CCS(=O)(=O)c1ccc(OC)cc1Nn1cnc2ccc(OC(F)(F)F)cc2c1=O` [Compound C-28, 3-(2-Ethylsulfonyl-5-methoxyanilino)-6-(trifluoromethoxy)quinazolin-4-one] the figure was 290 nM; with `CCSc1ccc(OC)cc1Nn1cnc2c(Br)cc(C(F)(F)F)cc2c1=O` [Compound C-29, 8-Bromo-3-(2-ethylsulfanyl-5-methoxyanilino)-6-(trifluoromethyl)quinazolin-4-one], 160 nM. With `CCS(=O)(=O)c1ccc(OC)cc1Nn1cnc2c(Br)cc(C(F)(F)F)cc2c1=O` [Compound C-30, 8-Bromo-3-(2-ethylsulfonyl-5-methoxyanilino)-6-(trifluoromethyl)quinazolin-4-one], the 50% inhibitory concentration (IC50) was found to be 150 nM. Take `CCOc1ccc(SCC)c(Nn2cnc3c(Br)cc(C(F)(F)F)cc3c2=O)c1` [Compound C-31, 8-Bromo-3-(5-ethoxy-2-ethylsulfanylanilino)-6-(trifluoromethyl)quinazolin-4-one]: the IC50 was determined as 330 nM. With `CCOc1ccc(S(=O)(=O)CC)c(Nn2cnc3c(Br)cc(C(F)(F)F)cc3c2=O)c1` [Compound C-32, 8-Bromo-3-(5-ethoxy-2-ethylsulfonylanilino)-6-(trifluoromethyl)quinazolin-4-one] the figure was 1970 nM. With `CCSc1ccc(C(F)(F)F)cc1Nn1cnc2c(Br)cc(C(F)(F)F)cc2c1=O` [Compound C-34, 8-Bromo-3-[2-ethylsulfanyl-5-(trifluoromethyl)anilino]-6-(trifluoromethyl)quinazolin-4-one] the figure was 170 nM; with `CCS(=O)(=O)c1ccc(C(F)(F)F)cc1Nn1cnc2c(Br)cc(C(F)(F)F)cc2c1=O` [Compound C-35, 8-Bromo-3-[2-ethylsulfonyl-5-(trifluoromethyl)anilino]-6-(trifluoromethyl)quinazolin-4-one], 210 nM. Under `C#Cc1ccc(SCC)c(Nn2cnc3c(Br)cc(C(F)(F)F)cc3c2=O)c1` [Compound C-36, 8-Bromo-3-(2-ethylsulfanyl-5-ethynylanilino)-6-(trifluoromethyl)quinazolin-4-one] stands 280 nM; under `C#Cc1ccc(S(=O)(=O)CC)c(Nn2cnc3c(Br)cc(C(F)(F)F)cc3c2=O)c1` [Compound C-37, 8-Bromo-3-(2-ethylsulfonyl-5-ethynylanilino)-6-(trifluoromethyl)quinazolin-4-one], 240 nM.

For the compound `CCSc1c(Cl)cc(Cl)cc1Nn1cnc2ccc(C(F)(F)F)cc2c1=O` [Compound C-38, 3-(3,5-Dichloro-2-ethylsulfanylanilino)-6-(trifluoromethyl)quinazolin-4-one], the IC50 was determined as 280 nM. For `CCS(=O)(=O)c1c(Cl)cc(Cl)cc1Nn1cnc2ccc(C(F)(F)F)cc2c1=O` [Compound C-39, 3-(3,5-Dichloro-2-ethylsulfonylanilino)-6-(trifluoromethyl)quinazolin-4-one], the IC50 was found to be 140 nM. As for `CCSc1cc(Cl)c(Cl)cc1Nn1cnc2ccc(C(F)(F)F)cc2c1=O` [Compound C-40, 3-(4,5-Dichloro-2-ethylsulfanylanilino)-6-(trifluoromethyl)quinazolin-4-one], the IC50 was determined as 190 nM. With `CCS(=O)(=O)c1cc(Cl)c(Cl)cc1Nn1cnc2ccc(C(F)(F)F)cc2c1=O` [Compound C-41, 3-(4,5-Dichloro-2-ethylsulfonylanilino)-6-(trifluoromethyl)quinazolin-4-one] the figure was 110 nM; with `CCSc1cc(Cl)c(C#N)cc1Nn1cnc2ccc(C(F)(F)F)cc2c1=O` [Compound C-42, 2-Chloro-4-ethylsulfanyl-5-[[4-oxo-6-(trifluoromethyl)quinazolin-3-yl]amino]benzonitrile], 450 nM; with `CCS(=O)(=O)c1cc(Cl)c(C#N)cc1Nn1cnc2ccc(C(F)(F)F)cc2c1=O` [Compound C-43, 2-Chloro-4-ethylsulfonyl-5-[[4-oxo-6-(trifluoromethyl)quinazolin-3-yl]amino]benzonitrile], 330 nM. Under `CCSc1ncc(Cl)cc1Nn1cnc2c(Br)cccc2c1=O` [Compound D-1, 8-Bromo-3-[(5-chloro-3-ethylsulfanylpyridin-3-yl)amino]quinazolin-4-one] stands 2360 nM; under `CCSc1ncc(Cl)cc1Nn1cnc2ccc(C(F)(F)F)cc2c1=O` [Compound D-2, 3-[(5-Chloro-2-ethylsulfanylpyridin-3-yl)amino]-6-(trifluoromethyl)quinazolin-4-one], 410 nM. For the compound `CCS(=O)(=O)c1ncc(Cl)cc1Nn1cnc2ccc(C(F)(F)F)cc2c1=O` [Compound D-3, 3-[(5-Chloro-2-ethylsulfonylpyridin-3-yl)amino]-6-(trifluoromethyl)quinazolin-4-one], the IC50 amounted to 430 nM. Regarding `CCSc1ncc(Cl)cc1Nn1cnc2c(Br)cc(C)cc2c1=O` [Compound D-4, 8-Bromo-3-[(5-chloro-2-ethylsulfanylpyridin-3-yl)amino]-6-methylquinazolin-4-one], the IC50 was found to be 580 nM.

With `CCS(=O)(=O)c1ncc(Cl)cc1Nn1cnc2c(Br)cc(C)cc2c1=O` [Compound D-5, 8-Bromo-3-[(5-chloro-2-ethylsulfonylpyridin-3-yl)amino]-6-methylquinazolin-4-one], the half-inhibitory concentration (IC50) was 130 nM. With `CCSc1cnc(Cl)cc1Nn1cnc2ccc(C(F)(F)F)cc2c1=O` [Compound D-6, 3-[(2-Chloro-5-ethylsulfanylpyridin-4-yl)amino]-6-(trifluoromethyl)quinazolin-4-one] the figure was 93 nM.
